# Measurements reported in article PMC6413923 (Journal of medicinal chemistry, 2017).
# Where two headings read alike, the source gives them in different places.
# Columns and labels:
# [1] = first generation THPI; cited from earlier work
# MMP-9 = MMP-9 (Homo sapiens, UniProt P14780); settings: cited from earlier work; for Ki: read-out: Ki(app) MMP-9
# MT1-MMP = MT1-MMP (Homo sapiens, UniProt P50281); settings: cited from earlier work
# MMP-2 = MMP-2 (Homo sapiens, UniProt P08253); settings: cited from earlier work; for Ki: read-out: Ki(app) MMP-2
# collagenolytic MMPs = settings: in words, cited from earlier work
# CD thermal transition = type: physicochemical; settings: 25 °C, from thermal transition at 225 nm
# cytokines and chemokines = settings: cited from earlier work
# [2] = system: lung myeloperoxidase (MPO); settings: cited from earlier work
# [3] = system: wild-type mice subjected to CLP; settings: cited from earlier work
# MMP-1 = target: T1, MMP-1 (Homo sapiens, UniProt P03956); settings: in words; cited from earlier work
# T1 sequence (P03956 100-469): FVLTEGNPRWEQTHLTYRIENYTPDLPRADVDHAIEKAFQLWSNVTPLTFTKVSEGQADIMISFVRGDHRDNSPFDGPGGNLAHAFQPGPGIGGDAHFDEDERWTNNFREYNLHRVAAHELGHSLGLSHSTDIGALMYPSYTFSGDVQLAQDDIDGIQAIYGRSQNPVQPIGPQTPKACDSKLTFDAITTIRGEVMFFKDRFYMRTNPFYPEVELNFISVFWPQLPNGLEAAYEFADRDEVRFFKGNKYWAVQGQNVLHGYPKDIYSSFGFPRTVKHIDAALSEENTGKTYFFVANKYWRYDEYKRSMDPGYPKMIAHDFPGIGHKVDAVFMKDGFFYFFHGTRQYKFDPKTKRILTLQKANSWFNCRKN
# MMP-2, sequence (P08253 110-465 limits assumed): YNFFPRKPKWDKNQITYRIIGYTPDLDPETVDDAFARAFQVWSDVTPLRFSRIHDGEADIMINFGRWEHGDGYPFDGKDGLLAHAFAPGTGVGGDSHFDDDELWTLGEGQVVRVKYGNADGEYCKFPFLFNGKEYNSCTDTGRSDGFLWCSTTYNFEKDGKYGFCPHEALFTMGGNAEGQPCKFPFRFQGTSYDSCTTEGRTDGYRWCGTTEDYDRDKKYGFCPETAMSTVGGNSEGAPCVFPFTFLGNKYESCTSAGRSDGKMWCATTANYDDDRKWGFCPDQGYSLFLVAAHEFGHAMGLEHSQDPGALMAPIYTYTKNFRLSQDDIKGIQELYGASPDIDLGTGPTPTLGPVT
# MMP-9, sequence (P14780 107-444 limits assumed): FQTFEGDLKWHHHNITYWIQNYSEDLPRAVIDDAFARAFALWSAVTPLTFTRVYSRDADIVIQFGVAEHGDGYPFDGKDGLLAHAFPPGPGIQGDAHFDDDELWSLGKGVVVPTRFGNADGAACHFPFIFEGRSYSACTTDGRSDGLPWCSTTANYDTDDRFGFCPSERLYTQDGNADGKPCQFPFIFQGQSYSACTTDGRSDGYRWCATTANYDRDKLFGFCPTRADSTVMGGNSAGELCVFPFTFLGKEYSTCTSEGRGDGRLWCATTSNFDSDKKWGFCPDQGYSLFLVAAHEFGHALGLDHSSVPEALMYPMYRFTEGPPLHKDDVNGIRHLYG
compound,measurement,setting,value
C6-(Gly-Pro-Hyp)4-Gly-Pro-Pro-GlyΨ{PO2H-CH2}Val-Val-Gly-Glu-Gln-Gly-Glu-Gln-Gly-Pro-Pro-(Gly-Pro-Hyp)4-NH2 [C6-α1(V)GlyΨ{PO2H-CH2}Val THPI],Tm,[1],25 °C
same,inhibition of full-length (82 kDa) MMP-9 versus TIMP-1 resistant (65 kDa) MMP-9,MMP-9; comparison in words,similar
same,Ki,MMP-9; 10 °C,1.76 ± 0.05 nM
same,Ki,MMP-9; 37 °C,1.29 nM
same,inhibition of MT1-MMP,MT1-MMP,did not inhibit MT1-MMP
same,Ki,MMP-2; 10 °C,4.14 ± 0.47 nM
same,Ki,MMP-2; 37 °C,19.2 ± 0.64 nM
same,inhibition of MMPs,collagenolytic MMPs,low nanomolar range
(Gly-Pro-Hyp)6-Gly-Pro-Gln-Gly~Ile-Tyr-Phe-Gln-Arg-Gly-Val-Arg-(Gly-Pro-Hyp)5-NH2 [IYF],% folded,CD thermal transition,88%
"COc1ccc(S(=O)(=O)N2Cc3ccccc3C[C@@H]2C(=O)NO)cc1 [(3R)-(+) - [2-(4-methoxy-benzenesulfonyl)-1,2,3,4-tetrahydroisoquinoline-3-hydroxamate]]",IL-1β in CLP mice,cytokines and chemokines,significantly reduced
same,IL-6 in CLP mice,cytokines and chemokines,significantly reduced
same,MIP-1α in CLP mice,cytokines and chemokines,significantly reduced
same,TNF-α in CLP mice,cytokines and chemokines,significantly reduced
same,whole lung MPO activity in CLP mice,[2],reduced whole lung MPO activity
same,survival of CLP mice,[3],improved survival
(Gly-Pro-Hyp)6-Gly-Pro-Gln-Gly~Val-Gln-His-Gln-Arg-Gly-Val-Arg-(Gly-Pro-Hyp)5-NH2 [VQH],% folded,CD thermal transition,87%
(Gly-Pro-Hyp)6-Gly-Pro-Gln-Gly~Val-Ser-Trp-Gln-Arg-Gly-Val-Arg-(Gly-Pro-Hyp)5-NH2 [VSW],% folded,CD thermal transition,92%
(Gly-Pro-Hyp)4-Gly-mep-Flp-Gly-Pro-Gln-GlyΨ{PO2H-CH2}Leu-Ala-Gly-Gln-Arg-Gly-Ile-Arg-Gly-mep-Flp-(Gly-Pro-Hyp)4-Tyr-NH2 [α1(I-III)GlyΨ{PO2H-CH2}Leu THPI],inhibition of MMP-1,MMP-1,effectively inhibits
same,inhibition of MMP-9,MMP-9; in words,effectively inhibits
same,Ki,MT1-MMP; read-out: Ki MT1-MMP,120 nM
same,inhibition of MMP-2,MMP-2; in words,effectively inhibits
same,selectivity toward collagenolytic MMPs,collagenolytic MMPs; first generation,selective toward collagenolytic MMPs
same,inhibition of MMPs,collagenolytic MMPs,low nanomolar range
(Gly-Pro-Hyp)5-Gly-Arg-Ile-Gly-His~Leu-Arg-Thr-Gln-Gly-Val-Arg-(Gly-Pro-Hyp)5-Tyr-NH2 [HLRT],% folded,CD thermal transition,72%
(Gly-Pro-Hyp)6-Gly-Pro-Gln-Gly~Ile-His-Lys-Gln-Arg-Gly-Val-Arg-(Gly-Pro-Hyp)5-NH2 [IHK],% folded,CD thermal transition,83%
(Gly-Pro-Hyp)5-Gly-Arg-Ile-Gly-Phe~Leu-Asp-Pro-Gln-Gly-Val-Arg-(Gly-Pro-Hyp)5-Tyr-NH2 [FLDP],% folded,CD thermal transition,72%
(Gly-Pro-Hyp)5-Gly-Arg-Ile-Gly-Phe~Leu-Arg-Thr-Gln-Gly-Val-Arg-(Gly-Pro-Hyp)5-Tyr-NH2 [FLRT],% folded,CD thermal transition,79%
